Laboratory results: patent US20200164038A1, “MODIFIED NUCLEOSIDE, NUCLEOTIDE, AND NUCLEIC ACID COMPOSITIONS” (ModernaTX, Inc., priority 2011, published 2020)
Like-named read-outs stand apart in the source and are kept apart here.

Assays:
[1] = system: Factor IX; assay: Factor IX mRNA transfected in serum-free media, peptide detection by MALDI; type: cell-based, human; settings: 8 peptides detected, 7 unique to Factor IX
From the text: The cell culture supernatant was collected and subjected to trypsin digestion before undergoing 2-dimensional HPLC separation of the peptides Matrix-assisted laser desorption/ionization was used to detect the peptides. 8 peptides were detected and 7 of the detected peptides are unique to Factor IX.

[2] = for Serum Concentration 8-12 hours after administration: Factor IX; for Factor IX Protein Expression, Conc: mice IV, serum 8 hrs
[3] = In vivo study of Factor IX mmRNA IM, serum Factor IX; settings: mice IM, 2×100 ug/mouse in formulation buffer, 13 hours
Procedure: Human Factor IX mmRNA (Gen1; fully modified 5-methylcytosine and pseudouridine) formulated in formulation buffer was delivered to mice via intramuscular injection.
The mice were bled at 13 hours after the intramuscular injection to determine the concentration of human the polypeptide in serum in pg/mL.

[4] = Duration of activity after intramuscular delivery, serum human EPO; type: in vivo, Sprague-Dawley rats; settings: rats, 100 μg, 24, 48 and 72 hour
Procedure: The rats were bled 2, 6, 12, 24, 48 and 72 hours after the intramuscular injection to determine the concentration of human EPO in serum at a given time.

[5] = Intramuscular and subcutaneous delivery of human EPO mRNA in buffer, serum human EPO; type: in vivo, C57/BL6 mice; settings: mice, 100 μg, 13 hours
Procedure: (§1) Mice were intramuscularly or subcutaneously injected with 50 μl of the modified human EPO mRNA (h-EPO), modified luciferase mRNA (Luc) or the formulation buffer (F.Buffer) as described in the dosing chart Table 58. 13 hours post injection blood was collected and serum was analyzed to determine the amount human EPO for each mouse or rat.

[6] = Intramuscular delivery of human EPO mRNA in buffer, serum human EPO; type: in vivo, Sprague-Dawley rats; settings: rats, 100 μg, 13 hours
Procedure: as §1

[7] = Human G-CSF modified RNA lipoplex comparison I.M., S.C., G-CSF ELISA 13 hours; type: in vivo, C57/BL6 mice; settings: mice I.M. or S.C., 100 μg, saline or lipoplex
Procedure: A formulation containing 100 μg of either modified human G-CSF mRNA lipoplexed with 30% by volume of RNAIMAX™ with a 5-methylcytosine (5mc) and a pseudouridine (ψ) modification (G-CSF-Gen1-Lipoplex), modified human G-CSF mRNA with a 5mc and ψ modification in saline (G-CSF-Gen1-Saline), modified human G-CSF mRNA with a N1-5-methylcytosine (N1-5mc) and a ψ modification lipoplexed with 30% by volume of RNAIMAX™ (G-CSF-Gen2-Lipoplex), modified human G-CSF mRNA with a N1-5mc and ψ modification in saline (G-CSF-Gen2-Saline), modified luciferase with a 5mc and ψ modification lipoplexed with 30% by volume of RNAIMAX™ (Luc-Lipoplex), or modified luciferase mRNA with a 5mc and ψ modification in saline (Luc-Saline) was delivered intramuscularly (I.M.) or subcutaneously (S.C.) and a control group for each method of administration was giving a dose of 80 uL of the formulation buffer (F. Buffer) to C57/BL6 mice. 13 hours post injection serum and tissue from the site of injection were collected from each mouse and analyzed by G-CSF ELISA to compare human G-CSF protein levels. The results of the human G-CSF protein in mouse serum from the intramuscular administration and the subcutaneous administration results are shown in Table 55.

[8] = system: IFN-alpha; assay: Cytokine study PBMC, IFN-alpha production ELISA; type: cell-based; settings: human PBMC, Lipofectamine 2000
Procedure: The plates were then incubated at 37 C.
Each condition was done in duplicate
Shown in Tables 69 and 70 are the average from 2 separate PBMC donors of the G-CSF and IFN-alpha production over time as measured by specific ELISA.

[9] = system: neutrophil count; assay: Intravenous administration of lipoplexed G-CSF mRNA, neutrophil count; type: in vivo; settings: mice IV, 50 ug RNA in 10% lipoplex at days 0, 2 and 4; day 5
Procedure: Neutrophils were measured at days 1, 5 and 8. Controls included non-specific mammalian RNA or the formulation buffer alone (F.Buffer). The mice were bled at days 1, 5 and 8 to determine the effect of mRNA-encoded human G-CSF to increase neutrophil count. The dosing regimen is shown in Table 64 as are the resulting neutrophil counts (thousands/uL; K/uL).

[10] = system: peripheral blood mononuclear cells (PBMC); assay: Modified RNA transfected in PBMC: G-CSF by ELISA at 6 and 18 hours; type: cell-based, human; settings: Donor 2, 18 hours
Procedure: (§2) 500 ng of G-CSF mRNA modified with 5-methylcytosine (5mC) and pseudouridine (pseudoU) or unmodified G-CSF mRNA was transfected with 0.4 uL of Lipofectamine 2000 into peripheral blood mononuclear cells (PBMC) from three normal blood donors (D1, D2, and D3). […] The supernatant was harvested 6 hours and 18 hours after transfection and run by ELISA to determine the protein expression. The expression of G-CSF, IFN-alpha, and TNF-alpha for Donor 1 is shown in Table 86, Donor 2 is shown in Table 87 and Donor 3 is shown in Table 88.

[11] = system: peripheral blood mononuclear cells (PBMC); type: cell-based, human
Procedure: as §2

[12] = system: peripheral blood mononuclear cells (PBMC); assay: In vitro PBMC study, percent modification: IFN-alpha and TNF-alpha by ELISA, PC ratio; type: cell-based, human
Procedure: The supernatant was harvested and run by ELISA 22 hours after transfection to determine the protein expression.

[13] = system: Female BALB/C mice; assay: In vivo detection of innate immune response: human G-CSF and mouse IFN-alpha in serum; settings: Protein: Cytokine Ratio
Procedure: Blood is collected at 8 hours after dosing and using ELISA the protein levels of G-CSF and interferon-alpha (IFN-alpha) is determined by ELISA and are shown in Table 81.

[14] = system: Human primary foreskin fibroblasts (BJ fibroblasts); assay: Innate immune response in BJ fibroblasts, repeat transfection (IFN-beta, IL-6); type: cell-based; settings: daily transfection, Day 1

In the case of “Factor IX Gen 1: Factor IX mRNA SEQ ID NO 10, Cap1, fully modified with 5-methylcytosine and pseudouridine”, the “expression of Factor IX protein” value [1] is reported as “able to express full-length Factor IX protein”.

With “Factor IX: human Factor IX mRNA, SEQ ID NO: 10, polyA about 160 nt, Cap1, fully modified with 5-methylcytosine and pseudouridine” the “Serum Concentration 8-12 hours after administration” value (“Serum Concentration 8-12 hours” for short) ([2]; IM, 2 × 100 ug) was about 1.6 ng/mL, the “Serum Concentration 8-12 hours” value ([2]; IV (LNP), 1 ug) was about 40 ng/mL and the “Serum Concentration 8-12 hours” value ([2]; IV (LNP), 10 ug) was about 400 ng/mL. For the same molecule, the “Serum Concentration 8-12 hours” value ([2]; IV (LNP), 100 ug) was ~3,000-10,000 ng/ml, the “Factor IX Protein Expression, Conc” value ([2]; LNP NPA-029-1, 10 ug) was about 380 ng/mL and the “Factor IX Protein Expression, Conc” value ([2]; LNP NPA-029-1, 100 ug) was 3000 to 11000 ng/mL. The “concentration of Factor IX in serum” value [3] was 1600 pg/mL.

In the case of Luc, the “human EPO in serum, Avg.” value [4] is reported as 37.2 pg/mL, the “human EPO in serum, Geometric-mean” value [4] is reported as 29.2 pg/mL and the “human EPO Average Level in serum” value ([5]; IM) is reported as 0 pg/mL. The “human EPO Average Level in serum” value ([5]; SC) was 26.7 pg/mL, the “human EPO in serum, Avg.” value [6] was 24.5 pg/mL and the “human EPO in serum, Geometric-mean” value [6] was 22.4 pg/mL.

B1: Gen2 G-CSF mmRNA: human G-CSF mRNA, SEQ ID NO: 6, modified with 5-methylcytidine and N1-methylpseudouridine (nucleic acid, listed as Homo sapiens)
chain: GGGAAAUAAGAGAGAAAAGAAGAGUAAGAAGAAAUAUAAGAGCCACCAUGGCCGGUCCCGCGACCCAAAGCCCCAUGAAACUUAUGGCCCUGCAGUUGCUGCUUUGGCACUCGGCCCUCUGGACAGUCCAAGAAGCGACUCCUCUCGGACCUGCCUCAUCGUUGCCGCAGUCAUUCCUUUUGAAGUGUCUGGAGCAGGUGCGAAAGAUUCAGGGCGAUGGAGCCGCACUCCAAGAGAAGCUCUGCGCGACAUACAAACUUUGCCAUCCCGAGGAGCUCGUACUGCUCGGGCACAGCUUGGGGAUUCCCUGGGCUCCUCUCUCGUCCUGUCCGUCGCAGGCUUUGCAGUUGGCAGGGUGCCUUUCCCAGCUCCACUCCGGUUUGUUCUUGUAUCAGGGACUGCUGCAAGCCCUUGAGGGAAUCUCGCCAGAAUUGGGCCCGACGCUGGACACGUUGCAGCUCGACGUGGCGGAUUUCGCAACAACCAUCUGGCAGCAGAUGGAGGAACUGGGGAUGGCACCCGCGCUGCAGCCCACGCAGGGGGCAAUGCCGGCCUUUGCGUCCGCGUUUCAGCGCAGGGCGGGUGGAGUCCUCGUAGCGAGCCACCUUCAAUCAUUUUUGGAAGUCUCGUACCGGGUGCUGAGACAUCUUGCGCAGCCGUGAAGCGCUGCCUUCUGCGGGGCUUGCCUUCUGGCCAUGCCCUUCUUCUCUCCCUUGCACCUGUACCUCUUGGUCUUUGAAUAAAGCCUGAGUAGGAAG
modifications: 5-methylcytidine and N1-methylpseudouridine modified
In the case of B1, the “human G-CSF protein production relative to 5-methylcytosine/pseudouridine modified human G-CSF mRNA” value [7] is reported as “increased human G-CSF protein production” and the “innate immune recognition, cytokines (IFN-alpha)” value [8] is reported as “did not significantly increase cytokines”.

B2: Unmodified G-CSF mRNA: human G-CSF mRNA, SEQ ID NO: 6, having no modifications (natural NTPs) (nucleic acid, listed as Homo sapiens)
chain: B1 chain
In the case of B2, the “increase in neutrophil count above control” value [9] is reported as “no pharmacologic effect on neutrophil counts”.

B3: 100% modification: G-CSF mRNA (SEQ ID NO 6, Cap1) completely modified with 5mC and pseudoU (nucleic acid, listed as Homo sapiens)
chain: B1 chain
modifications: Cap1; 5-methylcytidine, pseudouridine
For B3, the G-CSF [10] was 432 pg/mL, the IFN-alpha [11] was 1 pg/mL and the “TNF-alpha Expression” value [12] was 11.1 pg/mL. For the same molecule, the “better ratio of protein/cytokine production than natural G-CSF mRNA, IFN-alpha” value [12] was 100 fold and the “better ratio of protein/cytokine production than natural G-CSF mRNA, TNF-alpha” value [12] was 27 fold.

B4: G-CSF Gen 2: G-CSF mRNA SEQ ID NO 6, Cap1, fully modified with 5-methylcytosine and N1-methylpseudouridine (nucleic acid, listed as Homo sapiens)
chain: B1 chain
modifications: Cap1; 5-methylcytosine, N1-methylpseudouridine
With B4 the “PC Ratio” value [13] was 748 and the IFNbeta [14] was 3 pg/mL.
